Assays:
[1] = tested on: red blood cells in EDTA-stabilized whole blood; assay: Visual evaluation of hemolysis (time until hemolysate is clear); type: cell-based
Protocol: Whether the conditions for differential hemolysis are appropriate can be easily and preferably determined by using the following standardized procedure. A whole blood sample with a hematocrit of 40 is diluted 1:10 and mixed 1:1 with the candidate hemolysis reagent. The efficacy of a reagent for bringing about differential hemolysis is seen visually. Upon lysis of the erythrocytes the mixture becomes clear. If precipitation of sample constituents occurs the sample becomes turbid or viscous or both.
(§1) Solution A: Fresh EDTA-stabilized whole blood is diluted with 0.15 molar sodium chloride solution in the ratio 1:10 (50 μL EDTA-blood plus 450 μL sodium chloride solution).
In the case of the addition of a second compound, e.g. potassium iodide (1-Butyl-3-methyl pyridiniumchloride/KJ) the stated salt is added in an approximately equimolar amount.
Hemolysate is prepared by mixing solution A and B in equal volumes, e.g. 500 μL solution A plus 500 μL solution B.
After mixing the hemolysate is inspected visually for turbidometry and clearness immediately after mixing, after 1 minute, 2, 5, 6, 7, 20 and 40 minutes. The time until a clear solution is observed is recorded.

[2] = tested on: erythrocytes in whole blood; assay: Microscopic evaluation of hemolysis, May-Grünwald staining; type: cell-based
Protocol: as §1
(§2) Solution B: A solution of the hemolysis reagent in 0.15 molar sodium chloride is prepared where the concentration of the hemolysis reagent is twice as high as the desired final concentration in the hemolysate, e.g. to get a final concentration of 25% of 1-Butyl-4-methylpyridinium tetrafluoroborate a solution of 50% ([…] salt plus 50 mL 0.15 molar sodium chloride in water) is prepared. In the case of the addition of a second anion, e.g. iodide (1-Butyl-3-methylpyridiniumchloride/KJ) the stated salt is added in an equimolar amount.
Hemolysate is prepared by mixing solution A and B in equal volumes, e.g. 20 μL solution A plus 20 μL solution B.
After mixing of the hemolysate a droplet is smeared on a microscope slide, air dried at room temperature and stained with May-Grünwald staining reagent (Merck Cat. No. 1.01424 May-Grünwald's Eosin Methylene Blue Solution).
Microscopy is performed by oil immersion light microscopy (magnification ×630).

[3] = tested on: erythrocytes in whole blood; assay: Microscopic evaluation of hemolysis, Trypane blue staining; type: cell-based; conditions: reagent 25%, 1 in 10 diluted whole blood
Protocol: The integrity of red blood cells can for example be easily assessed by appropriate life stains. In a preferred embodiment according to the present invention trypane blue is used in order to assess the integrity of a red blood cell, membrane. […] The membrane integrity of a red blood cell is easily assessed under the microscope after staining a sample with trypane blue. The percentage of disrupted red blood cells is calculated by counting intact red blood cells before and after the treatment, by then dividing the first number by the latter number and by then multiplying this value by 100. Red blood cells that are solubilized are referred to as lyzed red blood cells or as lyzed erythrocytes.
as §1
as §2, with “In the case of the addition of a second anion, e.g. iodide (1-Butyl-3-methylpyridiniumchloride/KJ) the stated salt is added in an equimolar amount.” left out

[4] = in vivo; cited from earlier work
[5] = in vitro; cited from earlier work
[6] = final concentration 25% (weight/volume), whole blood final dilution 1:20
[7] = final concentration 12.5% (weight/volume)

Question: Which “clear after (min.)” value [1, 6] does the source give for `CCCC[n+]1cccc(C)c1.[Cl-]` [1-Butyl-3-methyl pyridiniumchloride] here?
Answer: turbid

Question: With `O` [water, reference compound] as the compound, how does the “light microscopy of hemolyzed whole blood, May-Grünwald staining” value ([2]; hemolyzed with water, 1 in 10 diluted whole blood (FIG. 1)) read?
Answer: Erythrocyte membranes and nuclei are visible

Question: Which results are given for `CCCC[n+]1ccc(C)cc1.F[B-](F)(F)F` [1-Butyl-4-methylpyridinium tetrafluoroborate]?
Answer: light microscopy of hemolyzed whole blood, May-Grünwald staining ([2]; reagent 25%, 1 in 10 diluted whole blood (FIG. 2)): No erythrocytes or membranes are left, nuclei are still intact; light microscopy of hemolyzed whole blood, Trypane blue staining ([3]; 2.5 min incubation time (FIG. 4a)): Only few residual erythrocytes are left; light microscopy of hemolyzed whole blood, Trypane blue staining ([3]; 15 min incubation time (FIG. 4b)): No erythrocytes or membranes are left; clear after (min.) ([1]; final concentration 6% (weight/volume)): turbid; clear after [1, 7]: 40 min; clear after [1, 6]: 20 min

Question: With `COc1c(C)c2c(c(O)c1C/C=C(\C)CCC(=O)OCCN1CCOCC1)C(=O)OC2` [MMF, mycophenolate mofetil] as the compound, how does the therapeutic trough concentration [4] read?
Answer: 1000 to 3500 µg/L

Question: Which “clear after” value [1, 6] does the source give for `CCCCn1cc[n+](C)c1.F[B-](F)(F)F` [1-Butyl-3-methyl-imidazolium tetrafluoroborate] here?
Answer: 20 min

Question: What does the source list for `CCCCCC[n+]1ccccc1.[Cl-]` [1-Hexylpyridiniumchloride]?
Answer: clear after (min.) [1, 7]: turbid; clear after [1, 6]: 7 min

Question: Which “clear after” value [1, 6] does the source give for `CCCCCCCC[n+]1ccccc1.[Cl-]` [N-Octylpyridiniumchloride] here?
Answer: 2 min

Question: For `CCCCCCCC[N+]1(C)CCCC1.[Cl-]` [1-Methyl-1-octyl pyrrolidiniumchloride], which “clear after (min.)” value ([1]; final concentration 2.5% (weight/volume)) is on record?
Answer: turbid

Question: What about the “clear after (min.)” value [1, 6] of the same compound?
Answer: immediately

Question: Which “potency relative to cyclosporin” value [5] does the source give for `C=CC[C@@H]1/C=C(\C)C[C@H](C)C[C@H](OC)[C@H]2O[C@@](O)(C(=O)C(=O)N3CCCC[C@H]3C(=O)O[C@H](/C(C)=C/[C@@H]3CC[C@@H](O)[C@H](OC)C3)[C@H](C)[C@@H](O)CC1=O)[C@H](C)C[C@@H]2OC` [Tacrolimus, tacrolimus] here?
Answer: up to 100 times

Question: And the therapeutic trough concentration [4]?
Answer: 5 to 20 µg/L

Question: With `CCCCCCCCOC[n+]1cccc(C(N)=O)c1.[Cl-]` [3-Carbamoyl-1-octyloxymethyl pyridiniumchloride] as the compound, how does the “clear after (min.)” value ([1]; final concentration 1.5% (weight/volume)) read?
Answer: immediately

Question: What about the “clear after (min.)” value ([1]; final concentration 6.25% (weight/volume)) of the same compound?
Answer: immediately

Question: What about the “clear after (min.)” value [1, 7] of the same compound?
Answer: immediately

Question: With `CO[C@H]1C[C@@H]2CC[C@@H](C)[C@@](O)(O2)C(=O)C(=O)N2CCCC[C@H]2C(=O)O[C@H]([C@H](C)C[C@@H]2CC[C@@H](O)[C@H](OC)C2)CC(=O)[C@H](C)/C=C(\C)[C@@H](O)[C@@H](OC)C(=O)[C@H](C)C[C@H](C)/C=C/C=C/C=C/1C` [Sirolimus, sirolimus] as the compound, how does the therapeutic trough concentration [4] read?
Answer: 5 to 15 µg/L

Question: Which “clear after (min.)” value [1, 6] does the source give for `CCCCCCCCOS(=O)(=O)[O-].CCCCn1cc[n+](C)c1` [1-Butyl-3-methyl-imidazoliumoctylsulfate] here?
Answer: immediately

Reference: patent US7951598B2, “Differential hemolysis of a whole blood sample” (Roche Diagnostics Operations, Inc., priority 2006, dated 2011)
